Measurements reported in patent US6369104B1, “Biocidal compositions and use thereof containing a synergistic mixture of glutaraldehyde and 2,2-dibromo-3 nitrilo propionamide” (Hercules Incorporated, priority 2000, dated 2002).

Tested on: Klebsiella pneumoniae
Experiment: Checkerboard growth inhibition (turbidity at 590 nm) with Kull synergism index
Assay type: cell-based
Method: Glutaraldehyde and DBNPA were added in varying ratios over a wide range of concentrations to a liquid nutrient medium which was subsequently inoculated with a standard volume of a suspension of the facultative bacterium Klebsiella pneumoniae. Growth was measured by turbidity at 590 nm in a microplate spectrophotometer. The effect of the biocide chemicals, alone and in combination, is to reduce the growth (turbidity) of the bacterial cells as compared to controls not treated with the chemicals. Additions of the biocides, alone and in varying combinations and concentrations, were made according to the accepted “checkerboard” technique described by M. T. Kelly and J. Matsen, Antimicrobial Agents and Chemotherapy. 9:440 (1976). Growth was measured after overnight incubation at 30° C. Each unique sample concentration was tested in triplicate. The percent reduction of each treated sample was calculated from the relationship: [formula]
Plotting the % reduction of turbidity against the concentration of each biocide acting alone results in a dose-response curve, from which the biocide dose necessary to achieve a given % reduction can be interpolated.
Synergism was determined by the method of calculation described by F. C. Kull, P. C. Eisman, H. D. Sylwestrowicz and R. L. Mayer, Applied Microbiology, 9:538 (1961) using the relationship:
(QA/Qa)+(QB/Qb)=Synergism Index (SI)
Qa=quantity of compound A, acting alone, producing an end point
Qb=quantity of compound B, acting alone, producing an end point
QA=quantity of compound A, in mixture, producing an end point
QB=quantity of compound B, in mixture, producing an end point
The end point used in the calculations is the % reduction caused by each mixture of A and B. QA and QB are the individual concentrations in the A/B mixture causing a given % reduction. QA and QB are determined by interpolation from the respective dose-response curves of A and B as those concentrations of A and B acting alone which produce the same % reduction as each specific mixture produced.
Dose-response curves for each active acting alone were determined by linear regression analysis of dose-response data. Data were fitted to a curve represented by the equation shown with each data set. After linearizing the data, the contributions of each biocide component in the biocide mixtures to the inhibition of turbidity were determined by a linear regression method with the dose-response curve of the respective biocide. If, for example, quantities of QA and QB are sufficient to give a 50% reduction in turbidity, Qa and Qb are those quantities of A and B acting alone respectively, found to give 50% reduction in turbidity. A synergism index (SI) is calculated for each combination of A and B.
Where the SI is less than 1, synergism exists. Where the SI=1, additivity exists. Where SI is greater than 1, antagonism exists.
The data in the following tables come from treating Klebsiella pneumoniae, a common nuisance bacterial type found in industrial cooling waters and in pulping and paper making systems, with varying ratios and concentrations of glutaraldehyde and DBNPA. Shown for each combination is the % reduction of turbidity (%I), the calculated SI, and the weight ratio of glutaraldehyde and DBNPA.

Q: N#CC(Br)(Br)C(N)=O [DBNPA, 2,2-dibromo-3-nitrilopropionamide] was tested. Which “% I (% reduction of turbidity)” value (Table I, DBNPA 3.2 ppm alone) did it give?
A: The value was 60%.

Q: And the “% I (% reduction of turbidity)” value (Table I, DBNPA 6.3 ppm alone)?
A: The value was 62%.

Q: And the “% I (% reduction of turbidity)” value (Table I, DBNPA 12.5 ppm alone)?
A: The value was 65%.

Q: And the “% I (% reduction of turbidity)” value (Table I, DBNPA 25 ppm alone)?
A: Its value is 72%.

Q: And the “% I (% reduction of turbidity)” value (Table I, DBNPA 50 ppm alone)?
A: The value was 86%.

Q: And the “% I (% reduction of turbidity)” value (Table I, DBNPA 100 ppm alone)?
A: Its value is 100%.

Q: And the “% I (% reduction of turbidity)” value (Table II, DBNPA 3.2 ppm alone)?
A: The value was 84%.

Q: And the “% I (% reduction of turbidity)” value (Table II, DBNPA 6.3 ppm alone)?
A: The value was 85%.

Q: What about the “% I (% reduction of turbidity)” value (Table II, DBNPA 12.5 ppm alone) of the same compound?
A: The value was 87%.

Q: And the “% I (% reduction of turbidity)” value (Table II, DBNPA 25 ppm alone)?
A: Its value is 89%.

Q: What about the “% I (% reduction of turbidity)” value (Table II, DBNPA 50 ppm alone) of the same compound?
A: The value was 95%.

Q: And the “% I (% reduction of turbidity)” value (Table II, DBNPA 100 ppm alone)?
A: Its value is 100%.

Q: Which results are given for O=CCCCC=O [Glutaraldehyde, glutaraldehyde]?
A: % I (% reduction of turbidity) (Table I, Glutaraldehyde 9.4 ppm alone): 0%; % I (% reduction of turbidity) (Table I, Glutaraldehyde 18.8 ppm alone): 0%; % I (% reduction of turbidity) (Table I, Glutaraldehyde 37.5 ppm alone): 6%; % I (% reduction of turbidity) (Table I, Glutaraldehyde 75 ppm alone): 22%; % I (% reduction of turbidity) (Table I, Glutaraldehyde 150 ppm alone): 53%; % I (% reduction of turbidity) (Table I, Glutaraldehyde 300 ppm alone): 100%; % I (% reduction of turbidity) (Table II, Glutaraldehyde 9.4 ppm alone): 2%; % I (% reduction of turbidity) (Table II, Glutaraldehyde 18.8 ppm alone): 6%; % I (% reduction of turbidity) (Table II, Glutaraldehyde 37.5 ppm alone): 13%; % I (% reduction of turbidity) (Table II, Glutaraldehyde 75 ppm alone): 28%; % I (% reduction of turbidity) (Table II, Glutaraldehyde 150 ppm alone): 58%; % I (% reduction of turbidity) (Table II, Glutaraldehyde 300 ppm alone): 100%
